The results in this text go back to patent publication US7094759B2, “Oral modified SSP-5 antibacterial composition” (GC Corporation, priority 2003, dated 2006).

Common to all, as to assay: Adhesion suppressing properties on saliva treatment sensor chip (BIAcore)
Details in all cases: peptide solution 1 mg/mL in PBS pH7.4

In one experiment the test system is S. sanguis (ATCC10556). The experiment is classed as binding, Streptococcus sanguis. As for the experimental part:
(§1) S. sanguis (ATCC10556, ATCC10558), S. mutans (ATCC25175) were used as intraoral bacteria. All bacteria were cultured under an anaerobic conditions using Brain Heart Infusion broth (BHI; Difco Lavoratory, Detroit, Mich.) as a culture medium.
(§2) The specimen was stimulus saliva secreted by biting paraffine wax for 3 minutes by 3 subjects (A, B, C). The saliva was collected, incubated at 4° C. for 5 minutes, and centrifuged at 10000×g for 10 minutes at 4° C. Then, the supernatant was used the saliva specimen.
(§3) The adhesion suppressing properties of bacteria was confirmed by using a sensor chip as a substitute for a tooth. As the sensor chip, Pioneer Sensor Chip F1 (produced by BIAcore Company) was used. The sensor chip F1 was activated at flow speed of […] for 1 minute with 70 μL of 400 mM N-ethyl-N′-(3-diaethylaminoprophyl) carbodiimide and 100 mM N-hydroxy siccinimide solution. Then, the above saliva specimen was diluted 20 times, and bonded on the chip by passing 70 μL of sample over the activated chip. (Hereinafter, this chip was said to as a saliva treatment sensor chip)
(§4) The confirmation method of the adhesion suppressing properties by BIA core™ Biosensor system (produced by BIAcore Company) will be explained. First, each bacteria is passed over the saliva treatment sensor chip at 0.D.=1 (550 nm) and a flow speed of 20 μL/min. Then, the bonding state (Response Unit:RU) between the bacteria and saliva on the surface of the sensor chip was measured. The sensor chip was not carried out the peptide treatment.
(§5) Then, to the other saliva treatment sensor chip, which was different from the saliva treatment sensor chip adhered with bacteria, a modified SSP-5(390–402) peptide solution (1 mg/mL) dissolved with a phosphate buffer solution (PBS, pH7.4) was passed over the sensor chip at flow speed of 10 μL/min, and the surface of the saliva treatment sensor chip was treated with the peptide. Then, each bacteria was passed over the chip at 0.D.=1 (550 nm) and flow speed of 20 μL/min, and the bonding state (Response Unit:RU) between each bacteria and saliva on the sensor surface was measured. The final bacterium adhesion suppressing ratio by the peptide treatment was measured using the following formula 1. Adhesion suppressing ratio=100×{[Bonding state between bacteria and saliva (RU)]−[Bonding state between bacteria and saliva (after the peptide treatment) (RU)]}/[Bonding state between bacteria and saliva (RU)] [Formula 1]

Another experiment deals with S. sanguis (ATCC10558). The experiment is classed as binding, Streptococcus sanguis. As for the experimental part: as §1, §2, §3, §4, §5
The next experiment concerns S. mutans (ATCC25175). Type of experiment: binding, Streptococcus mutans. The procedure: as §1, §2, §3
The confirmation method of the adhesion suppressing properties by BIA core™ Biosensor system (produced by BIAcore Company) will be explained. […] Then, the bonding state (Response Unit:RU) between the bacteria and saliva on the surface of the sensor chip was measured. […]
as §5, with “Adhesion suppressing ratio=100×{[Bonding state between bacteria and saliva (RU)]−[Bonding state between bacteria and saliva (after the peptide treatment) (RU)]}/[Bonding state between bacteria and saliva (RU)] [Formula 1]” left out

Regarding “modified SSP-5(390–402): Modified fragment (390–402) of Streptococcus sanguis surface protein SSP-5; position 400 (residue 11 of SEQ ID NO: 1) is threonine”, the entries for the “Adhesion suppressing ratio S. sanguis (ATCC10556)” value in the experiment with S. sanguis (ATCC10556) (saliva sample A), with S. sanguis (ATCC10556) (saliva sample B) and with S. sanguis (ATCC10556) (saliva sample C) were 61%, 57% and 65%, respectively. The results for the “Adhesion suppressing ratio S. sanguis (ATCC10558)” value in the experiment on S. sanguis (ATCC10558) (saliva sample A), with S. sanguis (ATCC10558) (saliva sample B) and in the experiment with S. sanguis (ATCC10558) (saliva sample C) were 59%, 63% and 61%, respectively. For the same substance, the “Adhesion suppressing ratio S. mutans (ATCC25175)” value in the experiment on S. mutans (ATCC25175) (saliva sample A) is reported as 55%; in the experiment on S. mutans (ATCC25175) (saliva sample B), 60%; in the experiment on S. mutans (ATCC25175) (saliva sample C) it was 58%.
